Measured values reported in patent publication US5840684A, “Glycopeptide antibiotic derivatives” (Eli Lilly and Company, priority 1995, dated 1998).
In brackets after ≈: the same amount, converted by molar mass.

Columns and labels:
[1] = tested on: vancomycin-susceptible enterococci; experiment: broth micro-dilution, mean geometric MIC; format: cell-based, Enterococcus faecium and Enterococcus faecalis; conditions: enterococci, 24-hour incubation
[2] = tested on: vancomycin-resistant enterococci; experiment: broth micro-dilution, mean geometric MIC; format: cell-based, Enterococcus faecium and Enterococcus faecalis; conditions: enterococci, 24-hour incubation
[3] = tested on: Staphylococcus aureus S13E; format: cell-based
Experimental: (§1) The MIC's were determined using a standard broth micro-dilution assay.

[4] = tested on: Staphylococcus aureus SA1199B; format: cell-based
Experimental: as §1

[5] = tested on: Staphylococcus aureus 489; experiment: broth micro-dilution MIC; format: cell-based
Experimental: as §1

[6] = tested on: Staphylococcus aureus 491; experiment: broth micro-dilution MIC; format: cell-based
Experimental: as §1

[7] = tested on: Staphylococcus aureus X400; experiment: broth micro-dilution MIC; format: cell-based
Experimental: as §1

[8] = tested on: Entercoccus faecium 276; experiment: broth micro-dilution MIC; format: cell-based
Experimental: as §1

[9] = tested on: Staphylococcus aureus SA1199A; experiment: broth micro-dilution MIC; format: cell-based
Experimental: as §1

[10] = tested on: Staphylococcus aureus X778; experiment: broth micro-dilution MIC; format: cell-based
Experimental: as §1

[11] = tested on: Staphylococcus aureus 446; experiment: broth micro-dilution MIC; format: cell-based
Experimental: as §1

[12] = tested on: Entercoccus faecium 180-1; experiment: broth micro-dilution MIC; format: cell-based
Experimental: as §1

[13] = tested on: Staphylococcus aureus SA1199; experiment: broth micro-dilution MIC; format: cell-based
Experimental: as §1

[14] = tested on: Streptococcus pyogenes C203; experiment: broth micro-dilution MIC; format: cell-based
Experimental: as §1

[15] = tested on: Staphylococcus aureus 447; experiment: broth micro-dilution MIC; format: cell-based
Experimental: as §1

[16] = tested on: Escherichia coli EC14; experiment: broth micro-dilution MIC; format: cell-based
Experimental: (§2) The formula I compounds have in vitro and in vivo activity against Gram-positive pathogenic bacteria. The MIC's were determined using a standard broth micro-dilution assay.

[17] = tested on: Staphylococcus epidermidis 270; experiment: broth micro-dilution MIC; format: cell-based
Experimental: as §2

[18] = tested on: Staphylococcus haemolyticus 105; experiment: broth micro-dilution MIC; format: cell-based
Experimental: as §2

[19] = tested on: Staphylococcus haemolyticus 415; experiment: broth micro-dilution MIC; format: cell-based
Experimental: as §2

[20] = tested on: Haemophilus influenzae RD; experiment: broth micro-dilution MIC; format: cell-based; conditions: Haemophilus influenzae RD
Experimental: as §2

[21] = tested on: Entercoccus faecium 180; experiment: broth micro-dilution MIC; format: cell-based; conditions: Entercoccus faecium 180
Experimental: as §2

[22] = tested on: Entercoccus faecium 2041; experiment: broth micro-dilution MIC; format: cell-based; conditions: Entercoccus faecium 2041
Experimental: as §2

[23] = tested on: Enterococcus gallinarum 245; experiment: broth micro-dilution MIC; format: cell-based; conditions: Enterococcus gallinarum 245
Experimental: as §2

[24] = tested on: Streptococcus pneumoniae P1; experiment: broth micro-dilution MIC; format: cell-based
Experimental: as §2

Row | SMILES | mean geometric MIC, Vancomycin Sensitive Strains [1] [µg/mL] | mean geometric MIC, Vancomycin Resistant Strains [2] [µg/mL] | MIC [3] [µg/mL] | MIC [4] [µg/mL] | MIC [5] [µg/mL] | MIC [6] [µg/mL] | MIC [7] [µg/mL] | MIC [8] [µg/mL] | MIC [9] [µg/mL] | MIC [10] [µg/mL] | MIC [11] [µg/mL] | MIC [12] [µg/mL] | MIC [13] [µg/mL] | MIC [14] [µg/mL] | MIC [15] [µg/mL] | MIC [16] [µg/mL] | MIC [17] [µg/mL] | MIC [18] [µg/mL] | MIC [19] [µg/mL] | MIC [20] [µg/mL] | other results
1 | CNC(CC(C)C)C(=O)NC1C(=O)NC(CC(N)=O)C(=O)NC2C(=O)NC3C(=O)NC(C(=O)NC(C(=O)O)c4cc(O)cc(O)c4-c4cc3ccc4O)C(OC3CC(C)(NCc4c5ccccc5c(C)c5ccccc45)C(O)C(C)O3)c3ccc(c(Cl)c3)Oc3cc2cc(c3OC2OC(CO)C(O)C(O)C2OC2CC(C)(NCc3c4ccccc4c(C)c4ccccc34)C(O)C(C)O2)Oc2ccc(cc2Cl)C1O (stereo not drawn) [Compound 283] | 1.7 | 32 | 4 (≈ 2 µM) | 32 (≈ 16 µM) | 8 (≈ 4 µM) | 4 (≈ 2 µM) | 16 (≈ 8 µM) | 16 (≈ 8 µM) | 4 (≈ 2 µM) | 8 (≈ 4 µM) | 16 (≈ 8 µM) | 0.125 (≈ 0.0625 µM) | 32 (≈ 16 µM) | ≤ 0.06 | 32 (≈ 16 µM) | > 64 | 16 (≈ 8 µM) | > 64 | 32 (≈ 16 µM) | > 64 | MIC [21]: 4 µg/mL (≈ 2 µM); MIC [22]: 2 µg/mL (≈ 0.999 µM); MIC [23]: 32 µg/mL (≈ 16 µM); MIC [24]: ≤ 0.06 µg/mL
2 | CC(C)CC(C(=O)NC1C(=O)NC(CC(N)=O)C(=O)NC2C(=O)NC3C(=O)NC(C(=O)NC(C(=O)O)c4cc(O)cc(O)c4-c4cc3ccc4O)C(OC3CC(C)(N)C(O)C(C)O3)c3ccc(c(Cl)c3)Oc3cc2cc(c3OC2OC(CO)C(O)C(O)C2OC2CC(C)(NCc3c4ccccc4cc4ccccc34)C(O)C(C)O2)Oc2ccc(cc2Cl)C1O)N(C)Cc1c2ccccc2cc2ccccc12 (stereo not drawn) [Compound 284] | 2.3 | 38 | 4 (≈ 2.03 µM) | 4 (≈ 2.03 µM) | 2 (≈ 1.01 µM) | 2 (≈ 1.01 µM) | 4 (≈ 2.03 µM) | 8 (≈ 4.05 µM) | 0.25 (≈ 0.127 µM) | 1 (≈ 0.507 µM) | 8 (≈ 4.05 µM) | 0.5 (≈ 0.253 µM) | 8 (≈ 4.05 µM) | ≤ 0.06 | 8 (≈ 4.05 µM) | > 64 | 16 (≈ 8.11 µM) | 32 (≈ 16.2 µM) | 32 (≈ 16.2 µM) | > 64 | MIC [21]: 8 µg/mL (≈ 4.05 µM); MIC [22]: 1 µg/mL (≈ 0.507 µM); MIC [23]: 32 µg/mL (≈ 16.2 µM); MIC [24]: ≤ 0.06 µg/mL
3 | CC(C)CC(C(=O)NC1C(=O)NC(CC(N)=O)C(=O)NC2C(=O)NC3C(=O)NC(C(=O)NC(C(=O)O)c4cc(O)cc(O)c4-c4cc3ccc4O)C(OC3CC(C)(N)C(O)C(C)O3)c3ccc(c(Cl)c3)Oc3cc2cc(c3OC2OC(CO)C(O)C(O)C2OC2CC(C)(NCc3ccc4ccccc4n3)C(O)C(C)O2)Oc2ccc(cc2Cl)C1O)N(C)Cc1ccc2ccccc2n1 (stereo not drawn) [Compound 285] | 2.4 | 90 | 1 (≈ 0.533 µM) | 1 (≈ 0.533 µM) | 1 (≈ 0.533 µM) | 4 (≈ 2.13 µM) | 4 (≈ 2.13 µM) | 0.5 (≈ 0.267 µM) | 0.25 (≈ 0.133 µM) | 1 (≈ 0.533 µM) | 4 (≈ 2.13 µM) | 0.25 (≈ 0.133 µM) | 2 (≈ 1.07 µM) | ≤ 0.06 | 32 (≈ 17.1 µM) | > 64 | 8 (≈ 4.27 µM) | 16 (≈ 8.53 µM) | 16 (≈ 8.53 µM) | > 64 | MIC [21]: 16 µg/mL (≈ 8.53 µM); MIC [22]: 0.5 µg/mL (≈ 0.267 µM); MIC [23]: 16 µg/mL (≈ 8.53 µM); MIC [24]: ≤ 0.06 µg/mL
4 | CC(C)CC(C(=O)NC1C(=O)NC(CC(N)=O)C(=O)NC2C(=O)NC3C(=O)NC(C(=O)NC(C(=O)O)c4cc(O)cc(O)c4-c4cc3ccc4O)C(OC3CC(C)(NCc4cccc5c([N+](=O)[O-])cccc45)C(O)C(C)O3)c3ccc(c(Cl)c3)Oc3cc2cc(c3OC2OC(CO)C(O)C(O)C2OC2CC(C)(N)C(O)C(C)O2)Oc2ccc(cc2Cl)C1O)N(C)Cc1cccc2c([N+](=O)[O-])cccc12 (stereo not drawn) [Compound 286] | 1.1 | 19 | 4 (≈ 2.04 µM) | 4 (≈ 2.04 µM) | 2 (≈ 1.02 µM) | 2 (≈ 1.02 µM) | 2 (≈ 1.02 µM) | 1 (≈ 0.509 µM) | ≤ 0.06 | 4 (≈ 2.04 µM) | 1 (≈ 0.509 µM) | 0.25 (≈ 0.127 µM) | 2 (≈ 1.02 µM) | ≤ 0.06 | 8 (≈ 4.08 µM) | > 64 | 4 (≈ 2.04 µM) | 8 (≈ 4.08 µM) | 4 (≈ 2.04 µM) | > 64 | MIC [21]: 8 µg/mL (≈ 4.08 µM); MIC [22]: 1 µg/mL (≈ 0.509 µM); MIC [23]: 4 µg/mL (≈ 2.04 µM); MIC [24]: ≤ 0.06 µg/mL
5 | CC(C)CC(C(=O)NC1C(=O)NC(CC(N)=O)C(=O)NC2C(=O)NC3C(=O)NC(C(=O)NC(C(=O)O)c4cc(O)cc(O)c4-c4cc3ccc4O)C(OC3CC(C)(N)C(O)C(C)O3)c3ccc(c(Cl)c3)Oc3cc2cc(c3OC2OC(CO)C(O)C(O)C2OC2CC(C)(NCC3CC=CCC3)C(O)C(C)O2)Oc2ccc(cc2Cl)C1O)N(C)CC1CC=CCC1 (stereo not drawn) [Compound 287] | 1.1 | 45 | 1 (≈ 0.562 µM) | 0.25 (≈ 0.14 µM) | 0.5 (≈ 0.281 µM) | 1 (≈ 0.562 µM) | 0.5 (≈ 0.281 µM) | 0.25 (≈ 0.14 µM) | ≤ 0.06 | 0.5 (≈ 0.281 µM) | 1 (≈ 0.562 µM) | 0.125 (≈ 0.0702 µM) | 0.5 (≈ 0.281 µM) | ≤ 0.06 | 4 (≈ 2.25 µM) | > 64 | 4 (≈ 2.25 µM) | 8 (≈ 4.49 µM) | 16 (≈ 8.98 µM) | > 64 | MIC [21]: 16 µg/mL (≈ 8.98 µM); MIC [22]: 0.125 µg/mL (≈ 0.0702 µM); MIC [23]: 0.5 µg/mL (≈ 0.281 µM); MIC [24]: ≤ 0.06 µg/mL
6 | CNC(CC(C)C)C(=O)NC1C(=O)NC(CC(N)=O)C(=O)NC2C(=O)NC3C(=O)NC(C(=O)NC(C(=O)O)c4cc(O)cc(O)c4-c4cc3ccc4O)C(OC3CC(C)(NCc4ccc(OCCOC(C)(C)C)cc4)C(O)C(C)O3)c3ccc(c(Cl)c3)Oc3cc2cc(c3OC2OC(CO)C(O)C(O)C2OC2CC(C)(NCc3ccc(OCCOC(C)(C)C)cc3)C(O)C(C)O2)Oc2ccc(cc2Cl)C1O (stereo not drawn) [Compound 288] | 1.7 | 11 | 2 (≈ 0.997 µM) | 1 (≈ 0.499 µM) | 2 (≈ 0.997 µM) | 2 (≈ 0.997 µM) | 2 (≈ 0.997 µM) | 2 (≈ 0.997 µM) | 1 (≈ 0.499 µM) | 2 (≈ 0.997 µM) | 2 (≈ 0.997 µM) | 1 (≈ 0.499 µM) | 2 (≈ 0.997 µM) | ≤ 0.06 | 2 (≈ 0.997 µM) | > 64 | 1 (≈ 0.499 µM) | 2 (≈ 0.997 µM) | 4 (≈ 1.99 µM) | > 64 | MIC [21]: 4 µg/mL (≈ 1.99 µM); MIC [22]: 1 µg/mL (≈ 0.499 µM); MIC [23]: 2 µg/mL (≈ 0.997 µM); MIC [24]: ≤ 0.06 µg/mL
